Each block holds one molecule with its values, some of them ahead of it.
Columns and labels:
bladder cancer = settings: optimized schedule: 40 mg/20 cc (compared with 20 mg/20 cc), overnight dehydration, complete bladder emptying, alkalinization with sodium bicarbonate; cited from earlier work
[1] = cited from earlier work
[2] = set-up: dose or concentration left out as unconfirmed; settings: estradiol release, as its 3-acetate ester; cited from earlier work
[3] = In vivo study of coating and drug transfer from a stent, porcine coronary artery model; set-up: species or system Yucatan pig; settings: for amount of drug detected in the arterial tissue: stent as in Example 1
Description: Another sample of the coated stent was prepared for in vivo evaluation in a porcine coronary artery model using the Yucatan pig. Subjects were initially given 650 mg acetylsalicylic acid and 300 mg Plavix. Maintenance doses of 81 mg acetylsalicylic acid and 75 mg Plavix were administered. The target ACT (activated clotting time) for the procedure was about 250 seconds. Stent oversizing in relation to the artery was about 10-20%. The preparation of the sirolimus-coated stent was the same as described in Example 1 and used for the in vitro deployment into tubing, except that the device was sterilized using ETO prior to implantation into the animal.
The bulk concentration of drug was measured in the arterial tissue surrounding the implanted stent at 1, 3, 7, 14, and 28 days after implant, and provided a quantitative measure of the high efficiency of transfer of drug into the therapeutic site using devices and methods of the invention. The amount of drug that was detected in the arterial tissue was as follows: 1 day after implant, ˜6 μg; 3 days after implant, ˜16 μg; 7 days after implant, ˜30 μg; 14 days after implant, ˜30 μg; 28 days after implant, ˜13 μg. Peak tissue concentration of sirolimus of ˜30 μg at 14 days after implant was representative of approximately ⅙^th of the total drug that had been loaded on the stent. Note that some drug likely metabolized or diffused out of the arterial tissue into other areas of the body.

[4] = given intravesically in doses as high as 1 billion units; cited from earlier work

Molecule: CO[C@@]12[C@H](COC(N)=O)C3=C(C(=O)C(C)=C(N)C3=O)N1C[C@@H]1N[C@@H]12 [Mitomycin C, mitomycin C]
recurrence (bladder cancer): nearly cut in half
stability in acid urine [1]: inactivated

Molecule: C[C@]12CC[C@@H]3c4ccc(O)cc4CC[C@H]3[C@@H]1CC[C@@H]2O [estradiol]
circulating plasma concentration of the drug [2]: 300 pmol/L

amount of drug detected in the arterial tissue ([3]; 1 day after implant): ~6 µg
amount of drug detected in the arterial tissue ([3]; 3 days after implant): ~16 µg
amount of drug detected in the arterial tissue ([3]; 7 days after implant): ~30 µg
amount of drug detected in the arterial tissue ([3]; 14 days after implant): ~30 µg
amount of drug detected in the arterial tissue ([3]; 28 days after implant): ~13 µg
Peak tissue concentration of sirolimus ([3]; at 14 days after implant): ~30 µg
peak tissue amount as fraction of the total drug loaded on the stent ([3]; at 14 days after implant): approximately ⅙
Molecule: CO[C@H]1C[C@@H]2CC[C@@H](C)[C@@](O)(O2)C(=O)C(=O)N2CCCC[C@H]2C(=O)O[C@H]([C@H](C)C[C@@H]2CC[C@@H](O)[C@H](OC)C2)CC(=O)[C@H](C)/C=C(\C)[C@@H](O)[C@@H](OC)C(=O)[C@H](C)C[C@H](C)/C=C/C=C/C=C/1C [sirolimus]

Molecule: Interferon Alpha 2b
dose-limiting side effects [4]: without dose-limiting side effects

Source: patent US20100239635A1, “DRUG DELIVERY MEDICAL DEVICE” (MICELL TECHNOLOGIES, INC., priority 2009, published 2010)
